Laboratory results from patent US20180127374A1, “BE[…] AS OPIOID RECEPTORS MODULATORS” (Purdue Pharma L.P., priority 2012, published 2018).
Like-named read-outs stand apart in the source and are kept apart here.

What was measured:
μ-opioid receptor [1] = molecular target: T1, μ-opioid receptor (Homo sapiens, UniProt P35372); assay: μ-opioid receptor radioligand dose-displacement binding assay
Method: Radioligand dose-displacement binding assays for μ-opioid receptors used 0.3 nM [^3H]-diprenorphine (Perkin Elmer, Shelton, Conn.), with […] membrane protein/well in a final volume of […] binding buffer (10 mM MgCl2, 1 mM EDTA, 5% DMSO, 50 mM HEPES, pH 7.4). Reactions were carried out in the absence or presence of increasing concentrations of unlabeled naloxone. All reactions were conducted in 96-deep well polypropylene plates for 2 hr at room temperature. […] The data were analyzed using the one-site competition curve fitting functions in GraphPad PRISM™ v. 3.0 or higher (San Diego, Calif.), or an in-house function for one-site competition curve-fitting.
Target sequence in this assay (P35372 whole entry): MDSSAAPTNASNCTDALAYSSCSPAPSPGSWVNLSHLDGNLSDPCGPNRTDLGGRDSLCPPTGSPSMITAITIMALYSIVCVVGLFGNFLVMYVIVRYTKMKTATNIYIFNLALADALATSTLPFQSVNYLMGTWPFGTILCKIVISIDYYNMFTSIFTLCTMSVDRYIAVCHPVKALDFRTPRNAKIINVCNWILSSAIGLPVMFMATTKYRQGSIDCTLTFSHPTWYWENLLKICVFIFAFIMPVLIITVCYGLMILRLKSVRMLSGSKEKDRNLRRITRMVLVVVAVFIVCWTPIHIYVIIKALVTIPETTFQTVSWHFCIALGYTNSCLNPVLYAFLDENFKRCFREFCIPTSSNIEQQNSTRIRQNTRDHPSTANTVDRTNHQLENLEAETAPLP

κ opioid receptor [2] = molecular target: T2, κ opioid receptor (Homo sapiens, UniProt P41145); assay: κ-opioid receptor [35S]GTPγS functional assay; assay type: biochemical; design: expressed in transfected cells; details: for Emax: relative to the effect elicited by U69,593
T2 sequence (P41145 whole entry): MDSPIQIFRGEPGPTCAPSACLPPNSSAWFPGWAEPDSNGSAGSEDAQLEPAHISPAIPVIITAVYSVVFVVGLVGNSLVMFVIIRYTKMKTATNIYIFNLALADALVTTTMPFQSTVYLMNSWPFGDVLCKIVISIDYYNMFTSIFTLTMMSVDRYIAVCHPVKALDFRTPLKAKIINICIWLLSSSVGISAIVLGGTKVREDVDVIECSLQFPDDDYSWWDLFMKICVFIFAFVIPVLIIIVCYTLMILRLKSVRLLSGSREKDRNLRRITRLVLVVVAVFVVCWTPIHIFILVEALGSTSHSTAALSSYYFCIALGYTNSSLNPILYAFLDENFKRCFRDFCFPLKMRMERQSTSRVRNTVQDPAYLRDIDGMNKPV
Method: Functional [^35S]GTPγS binding assays were conducted as follows. κ opioid receptor membrane solution was prepared by sequentially adding final concentrations of 0.026 μg/μl κ membrane protein (in-house), 10 μg/mL saponin, 3 μM GDP and 0.20 nM [^35S]GTPγS to binding buffer (100 mM NaCl, 10 mM MgCl2, 20 mM HEPES, pH 7.4) on ice. The prepared membrane solution (190 μl/well) was transferred to 96-shallow well polypropylene plates containing 10 μl of 20× concentrated stock solutions of agonist prepared in DMSO. Plates were incubated for 30 min at a temperature of about 25° C. with shaking.
κ GTP EC50 is the concentration of a compound providing 50% of the maximal response for the compound at a κ receptor.
κ GTP Emax (%) is the maximal effect elicited by a compound relative to the effect elicited by U69,593.

μ-opioid receptor [3] = molecular target: T1, μ-opioid receptor; assay: μ-opioid receptor [35S]GTPγS functional assay; assay type: biochemical; design: purchased Perkin Elmer, Shelton, Conn
Method: [^35S]GTPγS functional assays were conducted using freshly thawed μ-receptor membranes (Perkin Elmer, Shelton, Conn.). Assay reactions were prepared by sequentially adding the following reagents to binding buffer (100 mM NaCl, 10 mM MgCl2, 20 mM HEPES, pH 7.4) on ice (final concentrations indicated): membrane protein (0.026 mg/mL), saponin ([…]), GDP ([…]) and [^35S]GTPγS (0.20 nM; Perkin Elmer, Shelton, Conn.). The prepared membrane solution (190 μl/well) was transferred to 96-shallow well polypropylene plates containing 10 μI of 20× concentrated stock solutions of the agonist [D-Ala^e, N-methyl-Phe^4 Gly-ol^5]-enkephalin (DAMGO) prepared in dimethyl sulfoxide (DMSO). Plates were incubated for 30 min at about 25° C. with shaking. […] Data were analyzed using the sigmoidal dose-response curve fitting functions in GraphPad PRISM v. 3.0, or an in-house function for non-linear, sigmoidal dose-response curve-fitting.
μ GTP EC50 is the concentration of a compound providing 50% of the maximal response for the compound at a μ-opioid receptor.
μ GTP Emax (%) is the maximal effect elicited by a compound relative to the effect elicited by DAMGO, a standard μ agonist. Generally, the μ GTP Emax (%) value measures the efficacy of a compound to treat or prevent pain or other Conditions.
Target sequence in this assay (P35372 whole entry, species assumed): as the sequence (P35372 whole entry) above

κ opioid receptor [4] = molecular target: T2, κ opioid receptor; assay: κ-opioid receptor radioligand dose displacement binding assay; design: expressed in transfected cells; host or cells: HEK-293
Method: Membranes from recombinant HEK-293 cells expressing the human κ opioid receptor (κ) (cloned in house) were prepared by lysing cells in ice cold hypotonic buffer (2.5 mM MgCl2, 50 mM HEPES, pH 7.4) (10 mL/10 cm dish) followed by homogenization with a tissue grinder/Teflon pestle. Membranes were collected by centrifugation at 30,000×g for 15 min at 4° C. and pellets were resuspended in hypotonic buffer to a final concentration of 1-3 mg/mL. Protein concentrations were determined using the BioRad protein assay reagent with bovine serum albumen as standard. Aliquots of κ receptor membranes were stored at […]

[5] = [3H]-diprenorphine displacement, read-out: Ki (nM) Opioid Receptor μ
[6] = κ membrane protein (in-house), read-out: GTPγS κ EC50
[7] = μ-receptor membranes, μM, read-out: GTPγS μ EC50
[8] = [3H]-U69,593 displacement, HEK-293 membranes, read-out: Ki (nM) Opioid Receptor κ

SMILES | Ki (μ-opioid receptor [1]; [5]) | Emax (κ opioid receptor [2]) | EC50 (κ opioid receptor [2]; [6]) | EC50 (μ-opioid receptor [3]; [7]) | Ki (κ opioid receptor [4]; [8]) | Ki (μ-opioid receptor [1]) | EC50 (κ opioid receptor [2]) | EC50 (μ-opioid receptor [3]) | Ki (κ opioid receptor [4]) | Emax (μ-opioid receptor [3]; relative to the effect elicited by DAMGO) | EC50 (μ-opioid receptor [3]; μ-receptor membranes, read-out: GTPγS μ EC50)
C[C@H](NC(=O)C[C@@]12CCN(CC3CC3)C(Cc3ccc(O)cc31)[C@@H]2C)C(N)=O [Compound 1, (2S)-2-(2-((6R,11R)-3-(cyclopropylmethyl)-8-hydroxy-11-methyl-1,2,3,4,5,6-hexahydro-2,6-methanobenzo[d]azocin-6-yl)acetamido)propanamide] | 31.7 ± 6.24 nM | 31.3% | 8.91 nM | > 20 µM | 1.48 ± 0.27 nM | – | – | – | – | – | –
C[C@H]1C2Cc3ccc(O)cc3[C@@]1(CCCC(N)=O)CCN2CC1CC1 [Compound 2, 4-((6S,11R)-3-(cyclopropylmethyl)-8-hydroxy-11-methyl-1,2,3,4,5,6-hexahydro-2,6-methanobenzo[d]azocin-6-yl)butanamide] | 10.7 ± 1.82 nM | 67.3% | 8.98 nM | > 20 µM | 0.49 ± 0.11 nM | – | – | – | – | – | –
COc1ccc2c(c1)[C@@]1(CCCC(=O)O)CCN(CC3CC3)C(C2)[C@@H]1C [Compound 3, 4-((6S,11R)-3-(cyclopropylmethyl)-8-methoxy-11-methyl-1,2,3,4,5,6-hexahydro-2,6-methanobenzo[d]azocin-6-yl)butanoic acid] | 1110 ± 32.6 nM | 80.7% | 3470 nM | > 20 µM | 137 ± 41.9 nM | – | – | – | – | – | –
C[C@H]1C2Cc3ccc(O)cc3[C@@]1(CCCC(=O)O)CCN2CC1CC1 [Compound 4, 4-((6S,11R)-3-(cyclopropylmethyl)-8-hydroxy-11-methyl-1,2,3,4,5,6-hexahydro-2,6-methanobenzo[d]azocin-6-yl)butanoic acid] | 7.61 ± 2.44 nM | 67.3% | 24.8 nM | > 20 µM | 2.52 ± 0.23 nM | – | – | – | – | – | –
COc1ccc2c(c1)[C@@]1(CC(=O)O)CCN(CC3CC3)C(C2)[C@@H]1C [Compound 5, 2-((6R,11R)-3-(cyclopropylmethyl)-8-methoxy-11-methyl-1,2,3,4,5,6-hexahydro-2,6-methanobenzo[d]azocin-6-yl)acetic acid] | – | – | – | > 20 µM | 4460 ± 1850 nM | – | – | – | – | – | –
COc1ccc2c(c1)[C@@]1(C[C@H](O)CO)CCN(CC3CC3)C(C2)[C@@H]1C [Compound 6, (2S)-3-((6R,11R)-3-(cyclopropylmethyl)-8-methoxy-11-methyl-1,2,3,4,5,6-hexahydro-2,6-methanobenzo[d]azocin-6-yl)propane-1,2-diol] | – | 69.3% | – | – | – | 3340 ± 895 nM | 3090 nM | > 20 µM | 46.4 ± 9.7 nM | – | –
COc1ccc2c(c1)[C@@]1(CC(=O)N[C@@H](C)C(N)=O)CCN(CC3CC3)C(C2)[C@@H]1C [Compound 7, (2S)-2-(2-((6R,11R)-3-(cyclopropylmethyl)-8-methoxy-11-methyl-1,2,3,4,5,6-hexahydro-2,6-methanobenzo[d]azocin-6-yl)acetamido)propanamide] | – | 29.7% | 5000 nM | > 20 µM | 193 ± 68.7 nM | – | – | – | – | – | –
COC(=O)/C=C/C[C@@]12CCN(CC3CC3)C(Cc3ccc(OC)cc31)[C@@H]2C [Compound 8, (E)-methyl 4-((6S,11R)-3-(cyclopropylmethyl)-8-methoxy-11-methyl-1,2,3,4,5,6-hexahydro-2,6-methanobenzo[d]azocin-6-yl)but-2-enoate] | 1810 ± 553 nM | 99.3% | 123 nM | – | 3.21 ± 0.76 nM | – | – | – | – | 46.3% | 0.562 µM
